Nine compounds from BindingDB's records for doi:10.1080/14756360801915476 (Instituto De Parastiologia Y Biomedicina "Lopez-Neyra, 2009) can be followed below.

Common to all, as to test: Inhibition Assay
Conditions in all cases: pH 8; 25 °C

Assay [1] has as its target T1, Deoxyuridine 5'-triphosphate nucleotidohydrolase, mitochondrial (Homo sapiens, UniProt P33316).
T1 sequence (P33316 whole entry): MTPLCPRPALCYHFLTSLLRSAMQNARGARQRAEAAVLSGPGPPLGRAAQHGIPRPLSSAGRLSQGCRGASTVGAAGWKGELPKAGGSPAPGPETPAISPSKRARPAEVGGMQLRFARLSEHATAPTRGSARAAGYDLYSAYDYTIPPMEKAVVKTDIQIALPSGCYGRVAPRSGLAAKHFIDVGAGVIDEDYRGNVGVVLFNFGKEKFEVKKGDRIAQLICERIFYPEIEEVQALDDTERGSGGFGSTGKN
The text has this:
(§1) Nucleotide hydrolysis was monitored by mixing enzyme and substrate with a rapid kinetic accessory (Hi-Tech Scientific) attached to a spectrophotometer (Cary 50). Protons, released through the hydrolysis of nucleotides, were neutralized with […] and monitored spectrophotometrically at the absorbance peak of the basic form of the indicator.

The target of assay [2] is T2, Deoxyuridine 5'-triphosphate nucleotidohydrolase (Plasmodium falciparum (isolate 3D7), UniProt Q8II92).
T2 sequence (Q8II92 whole entry): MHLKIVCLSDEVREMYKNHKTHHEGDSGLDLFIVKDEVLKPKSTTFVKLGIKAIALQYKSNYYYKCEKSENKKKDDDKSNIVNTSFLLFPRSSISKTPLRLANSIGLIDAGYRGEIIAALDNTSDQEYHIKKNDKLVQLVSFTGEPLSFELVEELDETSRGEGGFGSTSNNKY
Source text: as §1

Assay [3] addresses T3, dCTP deaminase (Campylobacter jejuni subsp. jejuni serotype O:2 (strain ATCC 700819 / NCTC 11168), UniProt Q9PN07).
T3 sequence (Q9PN07 whole entry): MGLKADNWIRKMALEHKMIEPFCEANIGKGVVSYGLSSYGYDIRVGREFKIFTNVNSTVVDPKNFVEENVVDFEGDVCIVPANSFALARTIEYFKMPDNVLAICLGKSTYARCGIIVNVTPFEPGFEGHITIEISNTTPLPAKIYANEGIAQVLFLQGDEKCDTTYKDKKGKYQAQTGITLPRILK
Source text: as §1

What is called Ki is the equilibrium dissociation constant of an inhibitor or competing ligand from its target. Read a high Ki as weaker binding. For `O=c1ccn(C2CC(O)C(CO[Si](c3ccccc3)(c3ccccc3)c3ccccc3)O2)c(=O)[nH]1` (stereo not drawn), the Ki is 908 µM in assay [1] and 2.8 µM in assay [2].

Consider `O=C(OCC1C=CC(n2ccc(=O)[nH]c2=O)O1)C12CC3CC(CC(C3)C1)C2` (stereo not drawn) [dUTPase inhibitor, 3], for which the values for the Ki in assay [1], in assay [3] and in assay [2] were 298 µM, 547 µM and 57.7 µM, respectively.

`CC(C)(C)[Si](OCC1C=CC(n2ccc(=O)[nH]c2=O)O1)(c1ccccc1)c1ccccc1` (stereo not drawn) [dUTPase inhibitor, 5]: the Ki is greater than 1000 µM in assay [1] and 1.16 µM in assay [2].

`O=c1ccn(C2CC(O)C(CNCc3ccccc3)O2)c(=O)[nH]1` (stereo not drawn) showed a Ki in assay [1] of 1000 µM.

As for `O=c1ccn(C2CC(O)C(COP(=O)(Oc3ccccc3)Oc3ccccc3)O2)c(=O)[nH]1` (stereo not drawn) [dUTPase inhibitor, 1], the figures for the Ki in assay [1], in assay [3] and in assay [2] were 135 µM, 1000 µM and 238 µM, respectively.

With `CC(C)(C)[Si](C)(C)OCC1OC(n2ccc(=O)[nH]c2=O)CC1F` (stereo not drawn) [dUTPase inhibitor, 6], the Ki is greater than 1000 µM in assay [1] and 6.28 µM in assay [2].

In the case of `CC(C)[Si](OCC1OC(n2ccc(=O)[nH]c2=O)CC1O)(C(C)C)C(C)C` (stereo not drawn), the Ki in assay [1] turned out to be 1000 µM; in assay [2] it was 227 µM.

With `CC(C)(C)[Si](OCC1OC(n2ccc(=O)[nH]c2=O)CC1O)(c1ccccc1)c1ccccc1` (stereo not drawn), the figures for the Ki in assay [1] and in assay [2] were 805 µM and 4.2 µM, respectively.

With `O=c1ccn(C2C=CC(COC(c3ccccc3)(c3ccccc3)c3ccccc3)O2)c(=O)[nH]1` (stereo not drawn) [dUTPase inhibitor, 2], the Ki in assay [3] was determined as 1000 µM.
